This note sets out measurements from patent publication US4939156A (priority 1987, dated 1990).

Data set [1] deals with human premyelocytic leukemia cells (HL-60). The experiment in a line: 50% inhibition of propagation of undifferentiated human premyelocytic leukemia HL-60 cells. Particulars: 144 h, 6 days incubation, read-out: Activity of test compound to inhibit by 50% the undifferentiated propagation of HL-60 cells (IC50). Format: cell-based. As for the experimental part: (§1) The human premyelocytic elukemia cells (HL-60 cell) are characterized by the ability to respond to pharmacological inducers of differentiation and can produce the normal granulocytes when they have been differentiated, as described in the "Blood" Vol. 54, No. 3, 713-733 (1979).
(§2) Thus, firstly the cell differentiation-inducing activity of the compound was assayed by the following procedure described in said "Blood". Namely, HL-60 cells were incubated by passing successively through RPMI 1640 media supplemented with 10% FCS (fetal calf serum), followed by adding the test compound at varying concentrations to aliquots of the culture of the HL-60 cells at the logarithmic phase of growth. The HL-60 cells thus incubated were further incubated in the presence of the test compound for 6 days and subsequently fixed to slide glasses. The fixed HL-60 cells were stained with May-Gruenwald-Giemsa's reagent and the morphology of the nuclei in the stained cells was examined to judge which of the cells has been differentiated into the normal granulocytes. Then, the number of the HL-60 cells which had propagated were counted.
As said "IC50 " concentration of the test compound was assumed such concentration of the test compound at which the counted number of the HL-60 cells having propagated was reduced by 50%, as compared to that counted in the control tests where the test compound was not used.

Data set [2] has the same test system. Put plainly: NBT-reducing ability (differentiation) of HL-60 cells after treatment with test compound. It is filed as cell-based. The conditions noted are these: 0.1% NBT, 37° C., 20 minutes. As for the experimental part: as §1, §2
Secondly, the another aliquot of the culture of the HL-60 cells which were incubated in the above procedure in the presence of the test compound at its evaluated "IC50 " concentration was centrifuged to collect the cells, which were then diluted with a volume of RPMI 1640 medium supplemented with 10% FCS, to provide a given concentration of the cells. Subsequently, the cells which were diluted with said medium were added and mixed with 0.1% of NBT and then incubated at 37° C. for 20 minutes. The number of the cells which stained black color owing to the involved reduction of NBT and which could be judged to have the ability to reduce NBT was counted.

Data set [3] relates to Influenza virus A/PR/8/34 strain. The experiment in a line: Antiviral activity, Virus No. 1 infested MDCK cell. The conditions noted are these: for IC50: PR/8, MDCK, 48 h, read-out: Inhibitory Concentration (IC50) which inhibited by 50% the denaturation of Virus No. 1 infested MDCK cell; for Quotient of minimum denaturation concentration divided by IC50, Virus No. 1: figures in brackets, MDCK cell, Influenza virus, 2880 min. It is filed as cell-based.

The subject of data set [4] is Newcastle disease virus (NDV) Miyadera strain. Put plainly: microbe, parasite or virus in culture. It is filed as cell-based. Particulars: for IC50: avian paramyxovirus 1, 48 h, read-out: Inhibitory Concentration (IC50) which inhibited by 50% the denaturation of Virus No. 2 infested HeLa-Y cell; for Quotient of minimum denaturation concentration divided by IC50, Virus No. 2: figures in brackets, HeLa-Y cell, NDV, 2880 min.

Data set [5] has as its system vesicular stomatitis virus (VSV) New Jersey strain. The experiment in a line: microbe, parasite or virus in culture. It is filed as cell-based. The conditions noted are these: for IC50: Vesicular stomatitis virus, L929, 48 h, read-out: Inhibitory Concentration (IC50) which inhibited by 50% the denaturation of Virus No. 3 infested L-929 cell; for Quotient of minimum denaturation concentration divided by IC50, Virus No. 3: figures in brackets, L-929 cell, VSV, 2880 min.

Data set [6] deals with Vaccinia virus Lister strain. The experiment in a line: organism not typed. It is filed as cell-based. The conditions noted are these: for IC50: 48 h, read-out: Inhibitory Concentration (IC50) which inhibited by 50% the denaturation of Virus No. 4 infested HeLa-Y cell; for Quotient of minimum denaturation concentration divided by IC50, Virus No. 4: figures in brackets, HeLa-Y cell, Vaccinia virus, 2880 min.

Data set [7] has as its system Herpes simplex virus (HSV) Type 2 196 strain. The experiment in a line: Antiviral activity, Virus No. 5 infested Vero cell. Format: cell-based. Particulars: for IC50: 48 h, HSV Type 2, Vero cell, read-out: Inhibitory Concentration (IC50) which inhibited by 50% the denaturation of Virus No. 5 infested Vello cell; for Quotient of minimum denaturation concentration divided by IC50, Virus No. 5: figures in brackets, Vero cell, HSV Type 2.

Data set [8] can be described thus: in vitro. Particulars: human, hela-y cells.
A short description of data set [9]: in vitro. The conditions noted are these: monkey, vero cells.
The nature of data set [10]: in vitro. The conditions noted are these: mouse, l-929 cells.
Data set [11] in a line: in vitro. The conditions noted are these: dog, mdck.

Each structure is given as a SMILES string. Converted amounts (≈) assume the structure as drawn.

As for `CCN1C(=O)NC(=O)C2(F)C1C(C)(C)C2(C)C` (stereo not drawn) [TI-62 Substance, 2-ethyl-6-fluoro-7,7,8,8-tetramethyl-2,4-diaza-bicyclo{4.3.0}octane-3,5-dione], the IC50 is 9 µg/mL (≈ 37.1 µM) in data set [1]; over 500 µg/mL in [3]; over 250 µg/mL in [4]; over 125 µg/mL in data set [5]; over 250 µg/mL in data set [6]; over 250 µg/mL in [7]. In addition, the “Percent of the number of the cells showing the NBT-reducing ability after treatment with test compound at IC50 concentration” value in data set [2] is listed as 34%. Moreover, in [3], the “Quotient of minimum denaturation concentration divided by IC50, Virus No. 1” value was under 2.00. The “Quotient of minimum denaturation concentration divided by IC50, Virus No. 2” value in [4] was under 1.00. Moreover, the “Quotient of minimum denaturation concentration divided by IC50, Virus No. 3” value in data set [5] is recorded as under 2.00. Also, the “Quotient of minimum denaturation concentration divided by IC50, Virus No. 4” value in data set [6] is on record as under 1.00. For the same compound, in data set [7], the “Quotient of minimum denaturation concentration divided by IC50, Virus No. 5” value is under 2.00. Moreover, the MCC at 48 h in [8] came to 250 µg/mL; in data set [9] it was 500 µg/mL; in data set [10], 250 µg/mL; in data set [11], 1000 µg/mL.

As to `CC1(C)C2N(Cc3ccccc3)C(=O)N(Cc3ccccc3)C(=O)C2(F)C1(C)C` (stereo not drawn) [TI-66 Substance, 2,4-dibenzyl-6-fluoro-7,7,8,8-tetramethyl-2,4-diaza-bicyclo{4.2.0}octane-3,5-dione], the IC50 is 7 µg/mL (≈ 17.7 µM) in data set [1]; over 200 µg/mL in [3]; over 25 µg/mL in data set [4]; 18.8 µg/mL (≈ 47.7 µM) in data set [5]; over 25 µg/mL in data set [6]; over 100 µg/mL in data set [7]. In addition, in data set [2], the “Percent of the number of the cells showing the NBT-reducing ability after treatment with test compound at IC50 concentration” value is on record as 65%. Moreover, in data set [3], the “Quotient of minimum denaturation concentration divided by IC50, Virus No. 1” value is recorded as under 1.25. Besides, the “Quotient of minimum denaturation concentration divided by IC50, Virus No. 2” value in data set [4] is on record as under 0.62. The “Quotient of minimum denaturation concentration divided by IC50, Virus No. 3” value in [5] came out at 0.83. Further, in [6], the “Quotient of minimum denaturation concentration divided by IC50, Virus No. 4” value is given as under 0.62. Besides, the “Quotient of minimum denaturation concentration divided by IC50, Virus No. 5” value in data set [7] is given as under 0.63. The MCC at 48 h stood at 15.6 µg/mL in data set [8], 62.5 µg/mL in data set [9], 15.6 µg/mL in [10] and 250 µg/mL in [11].

On to `CCN1C(=O)N(CC)C2C(C)(C)C(C)(C)C2(F)C1=O` (stereo not drawn) [TI-65 Substance, 2,4-diethyl-6-fluoro-7,7,8,8-tetramethyl-2,4-diaza-bicyclo{4.2.0}octane-3,5-dione], for which the IC50 in data set [1] is 36 µg/mL (≈ 133 µM); in data set [3], 375 µg/mL (≈ 1390 µM); in [4], over 250 µg/mL; in [5], over 125 µg/mL; in data set [6] it was over 250 µg/mL; in data set [7], 188 µg/mL (≈ 695 µM). Moreover, the “Percent of the number of the cells showing the NBT-reducing ability after treatment with test compound at IC50 concentration” value in data set [2] stood at 20%. In addition, in data set [3], the “Quotient of minimum denaturation concentration divided by IC50, Virus No. 1” value is recorded as 2.67. The “Quotient of minimum denaturation concentration divided by IC50, Virus No. 2” value in data set [4] was under 1.00. The “Quotient of minimum denaturation concentration divided by IC50, Virus No. 3” value in [5] was under 2.00. Besides, the “Quotient of minimum denaturation concentration divided by IC50, Virus No. 4” value in data set [6] is given as under 1.00. Further, the “Quotient of minimum denaturation concentration divided by IC50, Virus No. 5” value in [7] amounted to 2.66. Further, the MCC at 48 h is 250 µg/mL in data set [8], 500 µg/mL in data set [9], 250 µg/mL in data set [10] and 1000 µg/mL in data set [11].

Turning to `Nc1nc2c(ncn2COCCO)c(=O)[nH]1` [Acyclovir, reference compound], in [7], the IC50 stood at 1.17 µg/mL (≈ 5.2 µM) and the “Quotient of minimum denaturation concentration divided by IC50, Virus No. 5” value is over 855. Moreover, the MCC at 48 h in data set [9] was over 1000 µg/mL.

Turning to `NC12CC3CC(CC(C3)C1)C2` [Amantadine, reference compound], in data set [3], the IC50 is 50 µg/mL (≈ 331 µM) and the “Quotient of minimum denaturation concentration divided by IC50, Virus No. 1” value turned out to be 5.0. Besides, the MCC at 48 h in [11] is 250 µg/mL.
